Source: US20240174723A1, “STAPLED ANTIMICROBIAL PEPTIDES (STAMPS) AND USES THEREOF” (Lytica Therapeutics, Inc., priority 2021, published 2024)
In brackets after ≈: the same amount, converted by molar mass. Positions of bridges follow the written chain, without caps; N, C: chain ends. Non-standard residues stand in square brackets, D forms with d. Residues, ends and D or L forms follow the SMILES beside them. Phe(4-tBu) = CC(C)(C)c1ccc(C[C@H](N)C(=O)O)cc1; S5 = C=CCCC[C@](C)(N)C(=O)O; Dab = NCC[C@H](N)C(=O)O; Dap = NC[C@H](N)C(=O)O

What was measured:
in vitro [1] = assay type: cell-based; details: human, Inhibitory Concentration at 50% Cytotoxicity (IC50) Human Liver Cells (HepG2)
Outline: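 Cytotoxicity read by CellTiter-Glo luminescence after 48 h at 37 °C exposure to serially diluted StAMPs or vehicle. HepG2 cells were grown in EMEM plus 10% FBS and given 4 h to attach before dosing; peptides came from a 5 mg/mL aqueous stock.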

P. aeruginosa = assay type: cell-based, Pseudomonas aeruginosa
Outline: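 MIC taken as lowest peptide concentration with no visible growth after 20-24 h at 37 °C. Peptide serial dilutions from water stocks met P. aeruginosa inoculum (5×10^5 CFU/ml final) in MHB or MHB II, per a CLSI-adapted microbroth protocol.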

K. pneumoniae = assay type: cell-based, Klebsiella pneumoniae
Outline: (§1)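 MIC is the minimum StAMP concentration showing no visible growth after 20-24 h incubation at 37° C. Serially diluted peptides met bacteria regrown 3-4 h after overnight culture, at 5×10^5 CFU/ml final, in Mueller-Hinton broth or its cation-adjusted form, per a modified CLSI microdilution.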

A. baumannii = assay type: cell-based, Acinetobacter baumannii
Outline: as §1

S. aureus = assay type: cell-based, Staphylococcus aureus
Outline: as §1

E. coli = assay type: cell-based, Escherichia coli
Outline: as §1

in vitro [2] = assay type: cell-based; details: human
Outline: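 LDH release (absorbance at 490 nm) measured in the media of cells treated with serially diluted StAMPs or vehicle at 37 °C: 90 min for renal RPTEC, 48 h for liver HepG2. Cells were seeded overnight beforehand and media refreshed before dosing.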

Row | Structure (SMILES) | IC50 at 48 hours (in vitro [1]) [µg/mL] | Minimum Inhibitory Concentration (MIC) P. aeruginosa (P. aeruginosa) [µg/mL] | Minimum Inhibitory Concentration (MIC) K. pneumoniae (K. pneumoniae) [µg/mL] | Minimum Inhibitory Concentration (MIC) A. baumannii (A. baumannii) [µg/mL] | Minimum Inhibitory Concentration (MIC) S. aureus (S. aureus) [µg/mL] | Minimum Inhibitory Concentration (MIC) E. coli (E. coli) [µg/mL] | IC50 at 90 min (in vitro [2]) [µg/mL]
1 | CC(C)[C@@H]1NC(=O)[C@@](C)(NC(=O)[C@H](C)NC(=O)[C@H](CCCCN)NC(=O)CNC(=O)[C@H](Cc2ccccc2)NC(=O)[C@H](CCCCN)NC(=O)[C@H](CCCCN)NC(=O)[C@H](CCCCN)NC(=O)[C@H](CCCCN)NC(=O)[C@H](CCCCN)NC(=O)[C@]2(C)CCCC=CCCC[C@](C)(NC(=O)CN)C(=O)NCC(=O)N[C@@H](CCCCN)C(=O)N[C@@H](Cc3ccccc3)C(=O)N2)CCCC=CCCC[C@@](C)(C(=O)N[C@@H](C)C(=O)N[C@@H](CCCCN)C(=O)N[C@@H](CCCCN)C(=O)NCC(=O)NCC(=O)N[C@@H](CCC(=O)O)C(N)=O)NC(=O)[C@H](CCC(=O)O)NC(=O)[C@H](Cc2ccc(C(C)(C)C)cc2)NC1=O [compound 36] (H-G[S5]GKF[S5]KKKKKFGKA[S5]V[Phe(4-tBu)]E[S5]AKKGGE-NH2; staple 2-6, 16-20) | > 200 | 4 | 2 | 2 | 64 | 2 | 96 (≈ 32.5 µM)
2 | CC(C)[C@@H]1NC(=O)[C@@](C)(NC(=O)[C@H](C)NC(=O)[C@H](CCN)NC(=O)CNC(=O)[C@H](Cc2ccccc2)NC(=O)[C@H](CCCCN)NC(=O)[C@H](CCCCN)NC(=O)[C@H](CCCCN)NC(=O)[C@H](CCCCN)NC(=O)[C@H](CCCCN)NC(=O)[C@]2(C)CCCC=CCCC[C@](C)(NC(=O)CN)C(=O)NCC(=O)N[C@@H](CCCCN)C(=O)N[C@@H](Cc3ccccc3)C(=O)N2)CCCC=CCCC[C@@](C)(C(=O)N[C@@H](C)C(=O)N[C@@H](CCCCN)C(=O)N[C@@H](CCCCN)C(N)=O)NC(=O)[C@H](CCC(=O)O)NC(=O)CNC1=O [compound 39] (H-G[S5]GKF[S5]KKKKKFG[Dab]A[S5]VGE[S5]AKK-NH2; staple 2-6, 16-20) | 140 (≈ 55.2 µM) | 4 | 8 | 2 | >64 | 2 | 115 (≈ 45.3 µM)
3 | CC(C)[C@@H]1NC(=O)[C@@](C)(NC(=O)[C@H](C)NC(=O)[C@H](CCCCN)NC(=O)CNC(=O)[C@H](Cc2ccccc2)NC(=O)[C@H](CCCCN)NC(=O)[C@H](CCCCN)NC(=O)[C@H](CN)NC(=O)[C@H](CCCCN)NC(=O)[C@H](CCCCN)NC(=O)[C@]2(C)CCCC=CCCC[C@](C)(NC(=O)CN)C(=O)NCC(=O)N[C@@H](CCCCN)C(=O)N[C@@H](Cc3ccccc3)C(=O)N2)CCCC=CCCC[C@@](C)(C(=O)N[C@@H](C)C(=O)N[C@@H](CCCCN)C(=O)N[C@@H](CCCCN)C(N)=O)NC(=O)[C@H](CCC(=O)O)NC(=O)CNC1=O [compound 40] (H-G[S5]GKF[S5]KK[Dap]KKFGKA[S5]VGE[S5]AKK-NH2; staple 2-6, 16-20) | 203 (≈ 80.5 µM) | 4 | 8 | 2 | >64 | 2 | 200 (≈ 79.3 µM)
4 | CC(C)[C@@H]1NC(=O)[C@@](C)(NC(=O)[C@H](C)NC(=O)[C@H](CCCCN)NC(=O)CNC(=O)[C@H](Cc2ccccc2)NC(=O)[C@H](CCCCN)NC(=O)[C@H](CCCCN)NC(=O)[C@H](CCCCN)NC(=O)[C@H](CO)NC(=O)[C@H](Cc2c[nH]cn2)NC(=O)[C@]2(C)CCCC=CCCC[C@](C)(NC(=O)[C@@H](N)Cc3c[nH]c4ccccc34)C(=O)NCC(=O)N[C@@H](CCCCN)C(=O)N[C@@H](Cc3ccccc3)C(=O)N2)CCCC=CCCC[C@@](C)(C(=O)N[C@@H](C)C(=O)N[C@@H](CCCCN)C(=O)N[C@@H](CCCCN)C(N)=O)NC(=O)[C@H](CCC(=O)O)NC(=O)CNC1=O [compound 56] (H-W[S5]GKF[S5]HSKKKFGKA[S5]VGE[S5]AKK-NH2; staple 2-6, 16-20) | 200 (≈ 75.2 µM) | 16 | >64 | 4 | >64 | 8 | 78 (≈ 29.3 µM)
5 | CC(C)[C@@H]1NC(=O)[C@@](C)(NC(=O)[C@H](C)NC(=O)[C@H](CCCCN)NC(=O)CNC(=O)[C@H](Cc2ccccc2)NC(=O)[C@H](CCCCN)NC(=O)[C@H](CCCCN)NC(=O)[C@H](CCCCN)NC(=O)[C@H](CO)NC(=O)[C@H](Cc2c[nH]cn2)NC(=O)[C@]2(C)CCCC=CCCC[C@](C)(NC(=O)CN)C(=O)N[C@@H](Cc3c[nH]c4ccccc34)C(=O)N[C@@H](CCCCN)C(=O)N[C@@H](Cc3ccccc3)C(=O)N2)CCCC=CCCC[C@@](C)(C(=O)N[C@@H](C)C(=O)N[C@@H](CCCCN)C(=O)N[C@@H](CCCCN)C(N)=O)NC(=O)[C@H](CCC(=O)O)NC(=O)CNC1=O [compound 57] (H-G[S5]WKF[S5]HSKKKFGKA[S5]VGE[S5]AKK-NH2; staple 2-6, 16-20) | 70 (≈ 26.3 µM) | 8 | 16 | 4 | 32 | 4 | 35 (≈ 13.2 µM)
6 | CC(C)[C@@H]1NC(=O)[C@@](C)(NC(=O)[C@H](C)NC(=O)[C@H](CCCCN)NC(=O)CNC(=O)[C@H](Cc2ccccc2)NC(=O)[C@H](CCCCN)NC(=O)[C@H](CCCCN)NC(=O)[C@H](CCCCN)NC(=O)[C@H](CO)NC(=O)[C@H](Cc2c[nH]cn2)NC(=O)[C@]2(C)CCCC=CCCC[C@](C)(NC(=O)CN)C(=O)NCC(=O)N[C@@H](Cc3c[nH]c4ccccc34)C(=O)N[C@@H](Cc3ccccc3)C(=O)N2)CCCC=CCCC[C@@](C)(C(=O)N[C@@H](C)C(=O)N[C@@H](CCCCN)C(=O)N[C@@H](CCCCN)C(N)=O)NC(=O)[C@H](CCC(=O)O)NC(=O)CNC1=O [compound 58] (H-G[S5]GWF[S5]HSKKKFGKA[S5]VGE[S5]AKK-NH2; staple 2-6, 16-20) | > 200 | 32 | >64 | 8 | >64 | 16 | > 200
7 | CC(C)[C@@H]1NC(=O)[C@@](C)(NC(=O)[C@H](C)NC(=O)[C@H](CCCCN)NC(=O)CNC(=O)[C@H](Cc2ccccc2)NC(=O)[C@H](CCCCN)NC(=O)[C@H](CCCCN)NC(=O)[C@H](CCCCN)NC(=O)[C@H](CO)NC(=O)[C@H](Cc2c[nH]cn2)NC(=O)[C@]2(C)CCCC=CCCC[C@](C)(NC(=O)CN)C(=O)NCC(=O)N[C@@H](CCCCN)C(=O)N[C@@H](Cc3c[nH]c4ccccc34)C(=O)N2)CCCC=CCCC[C@@](C)(C(=O)N[C@@H](C)C(=O)N[C@@H](CCCCN)C(=O)N[C@@H](CCCCN)C(N)=O)NC(=O)[C@H](CCC(=O)O)NC(=O)CNC1=O [compound 59] (H-G[S5]GKW[S5]HSKKKFGKA[S5]VGE[S5]AKK-NH2; staple 2-6, 16-20) | > 200 | 8 | 64 | 4 | >64 | 4 | > 200
8 | CC(C)[C@@H]1NC(=O)[C@@](C)(NC(=O)[C@H](C)NC(=O)[C@H](CCCCN)NC(=O)CNC(=O)[C@H](Cc2ccccc2)NC(=O)[C@H](CCCCN)NC(=O)[C@H](CCCCN)NC(=O)[C@H](CCCCN)NC(=O)[C@H](CO)NC(=O)[C@H](Cc2c[nH]c3ccccc23)NC(=O)[C@]2(C)CCCC=CCCC[C@](C)(NC(=O)CN)C(=O)NCC(=O)N[C@@H](CCCCN)C(=O)N[C@@H](Cc3ccccc3)C(=O)N2)CCCC=CCCC[C@@](C)(C(=O)N[C@@H](C)C(=O)N[C@@H](CCCCN)C(=O)N[C@@H](CCCCN)C(N)=O)NC(=O)[C@H](CCC(=O)O)NC(=O)CNC1=O [compound 60] (H-G[S5]GKF[S5]WSKKKFGKA[S5]VGE[S5]AKK-NH2; staple 2-6, 16-20) | 56 (≈ 21.7 µM) | 8 | 32 | 4 | >64 | 4 | 108 (≈ 41.8 µM)
